Values joined by “and” are separate entries in the source; they are usually repeats but may differ in a detail not shown here. Identical values can stand only once.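 Results reflect a 48-hour exposure of cells in 96-well plates to compound at five concentrations. The concentration for 50% growth inhibition is given as GI50. TGI marks complete inhibition of growth.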
Assays:
Assay in all cases: NCI-60 cell line screen, 48 h
KM12 colon = test system: KM12 colon
NCI-H23 lung = test system: NCI-H23 lung
A549 NSCLC = test system: A549 NSCLC
LOX IMVI melanoma = test system: LOX IMVI melanoma
UACC-257 melanoma = test system: UACC-257 melanoma
IGROV1 ovarian = test system: IGROV1 ovarian
K-562 leukemia = test system: K-562 leukemia
SK-MEL-5 melanoma = test system: SK-MEL-5 melanoma
CAKI-1 renal = test system: CAKI-1 renal
OVCAR-8 ovarian = test system: OVCAR-8 ovarian
U251 CNS = test system: U251 CNS
SW-620 colon = test system: SW-620 colon
SK-OV-3 ovarian = test system: SK-OV-3 ovarian
NCI-H226 lung = test system: NCI-H226 lung
HCT-15 colon = test system: HCT-15 colon
HOP-92 NSCLC = test system: HOP-92 NSCLC
MDA-N = test system: MDA-N
SK-MEL-2 melanoma = test system: SK-MEL-2 melanoma
A498 renal = test system: A498 renal
HS 578T breast = test system: HS 578T breast
MOLT-4 leukemia = test system: MOLT-4 leukemia
SF-268 CNS = test system: SF-268 CNS
EKVX NSCLC = test system: EKVX NSCLC
NCI-H522 lung = test system: NCI-H522 lung
RXF 393 renal = test system: RXF 393 renal
MALME-3M melanoma = test system: MALME-3M melanoma
OVCAR-5 ovarian = test system: OVCAR-5 ovarian
HCT-116 colon = test system: HCT-116 colon
MCF7 breast = test system: MCF7 breast
UACC-62 melanoma = test system: UACC-62 melanoma
DU-145 prostate = test system: DU-145 prostate
MDA-MB-435 = test system: MDA-MB-435
TK-10 renal = test system: TK-10 renal
HL-60(TB) leukemia = test system: HL-60(TB) leukemia
OVCAR-3 ovarian = test system: OVCAR-3 ovarian
BT-549 breast = test system: BT-549 breast
OVCAR-4 ovarian = test system: OVCAR-4 ovarian
SF-295 CNS = test system: SF-295 CNS
COLO 205 colon = test system: COLO 205 colon
HCC-2998 colon = test system: HCC-2998 colon
SK-MEL-28 melanoma = test system: SK-MEL-28 melanoma
UO-31 renal = test system: UO-31 renal
NCI-H460 lung = test system: NCI-H460 lung
HOP-62 NSCLC = test system: HOP-62 NSCLC
786-0 renal = test system: 786-0 renal
CCRF-CEM leukemia = test system: CCRF-CEM leukemia
SNB-19 CNS = test system: SNB-19 CNS
SF-539 CNS = test system: SF-539 CNS
MDA-MB-231 breast = test system: MDA-MB-231 breast
ACHN renal = test system: ACHN renal
T-47D breast = test system: T-47D breast
M14 melanoma = test system: M14 melanoma
NCI/ADR-RES ovarian = test system: NCI/ADR-RES ovarian
SN12C renal = test system: SN12C renal
HT29 colon = test system: HT29 colon
PC-3 prostate = test system: PC-3 prostate
SNB-75 CNS = test system: SNB-75 CNS

In the case of `S=C(N/N=C(/c1ccccc1)c1ccccn1)N1CCCCCC1`, the GI50 (KM12 colon) is reported as 0.0105 µM, the TGI (KM12 colon) is reported as 1.57 µM and 1.5 µM and the TGI (NCI-H23 lung) is reported as 2.11 µM. The GI50 (A549 NSCLC) was 0.0318 µM, the TGI (A549 NSCLC) was 1.7 µM and 2.25 µM and the GI50 (LOX IMVI melanoma) was 0.00892 µM and 0.0583 µM. The TGI (LOX IMVI melanoma) was 1.79 µM and 1.27 µM, the TGI (UACC-257 melanoma) was 0.709 µM and the GI50 (IGROV1 ovarian) was less than 0.001 µM. For the same molecule, the TGI (IGROV1 ovarian) was 1.06 µM and 1.98 µM, the GI50 (K-562 leukemia) was less than 0.001 µM and the TGI (K-562 leukemia) was 0.0117 µM. For the same molecule, the GI50 (SK-MEL-5 melanoma) was 0.0199 µM, the TGI (SK-MEL-5 melanoma) was 0.138 µM and 1.17 µM and the GI50 (CAKI-1 renal) was 0.131 µM. For the same molecule, the TGI (CAKI-1 renal) was 1.87 µM and 2.02 µM, the GI50 (OVCAR-8 ovarian) was 0.00375 µM and the TGI (OVCAR-8 ovarian) was 1.65 µM and 1.33 µM. For the same molecule, the GI50 (U251 CNS) was 0.00287 µM, the TGI (U251 CNS) was 1.22 µM and 1.27 µM and the GI50 (SW-620 colon) was less than 0.001 µM. For the same molecule, the TGI (SW-620 colon) was 1.43 µM and 1.68 µM, the GI50 (SK-OV-3 ovarian) was 0.00173 µM and the TGI (SK-OV-3 ovarian) was 2.5 µM and 1.31 µM. The GI50 (NCI-H226 lung) was 0.02 µM, the TGI (NCI-H226 lung) was 1.19 µM and 1.58 µM and the GI50 (HCT-15 colon) was 0.00327 µM. For the same molecule, the TGI (HCT-15 colon) was 2.05 µM and 1.53 µM, the TGI (HOP-92 NSCLC) was 1.97 µM and the GI50 (MDA-N) was 0.217 µM. For the same molecule, the TGI (MDA-N) was 2.32 µM and 1.72 µM, the GI50 (SK-MEL-2 melanoma) was 0.0269 µM and the TGI (SK-MEL-2 melanoma) was 2.12 µM and 2.14 µM. The GI50 (A498 renal) was 0.00973 µM, the TGI (A498 renal) was 0.775 µM and 1.84 µM and the GI50 (HS 578T breast) was 1.54 µM. The TGI (HS 578T breast) was 7.58 µM and 7.59 µM, the GI50 (MOLT-4 leukemia) was less than 0.001 µM and the TGI (MOLT-4 leukemia) was 0.00191 µM. For the same molecule, the TGI (SF-268 CNS) was 1.96 µM and 2.87 µM, the GI50 (EKVX NSCLC) was 0.641 µM and the TGI (EKVX NSCLC) was 1.94 µM and 0.365 µM. For the same molecule, the GI50 (NCI-H522 lung) was 1.28 µM, the TGI (NCI-H522 lung) was 3.48 µM and 1.13 µM and the TGI (RXF 393 renal) was 1.63 µM and 2.32 µM. For the same molecule, the GI50 (MALME-3M melanoma) was 0.0392 µM, the TGI (MALME-3M melanoma) was 1.96 µM and 2.01 µM and the GI50 (OVCAR-5 ovarian) was less than 0.001 µM. The TGI (OVCAR-5 ovarian) was 2.11 µM, the GI50 (HCT-116 colon) was less than 0.001 µM and the TGI (HCT-116 colon) was 1.43 µM and 1.38 µM. The GI50 (MCF7 breast) was less than 0.001 µM, the TGI (MCF7 breast) was 0.194 µM and 1.56 µM and the GI50 (UACC-62 melanoma) was 0.39 µM. For the same molecule, the TGI (UACC-62 melanoma) was 3.73 µM and 0.78 µM, the GI50 (DU-145 prostate) was 1.03 µM and the TGI (DU-145 prostate) was 2.19 µM and 2.15 µM. For the same molecule, the GI50 (MDA-MB-435) was 0.043 µM, the TGI (MDA-MB-435) was 1.59 µM and 1.58 µM and the TGI (TK-10 renal) was 1.52 µM and 1.86 µM. For the same molecule, the GI50 (HL-60(TB) leukemia) was less than 0.001 µM, the TGI (HL-60(TB) leukemia) was 4.13 µM and the GI50 (OVCAR-3 ovarian) was less than 0.001 µM. For the same molecule, the TGI (OVCAR-3 ovarian) was 1.76 µM and 1.23 µM, the TGI (BT-549 breast) was 2.07 µM and the TGI (OVCAR-4 ovarian) was 2.04 µM. The GI50 (SF-295 CNS) was 0.564 µM, the TGI (SF-295 CNS) was 2.08 µM and 1.51 µM and the GI50 (COLO 205 colon) was less than 0.001 µM. The GI50 (HCC-2998 colon) was 1.17 µM, the TGI (HCC-2998 colon) was 3.13 µM and 1.98 µM and the GI50 (SK-MEL-28 melanoma) was 0.863 µM and 0.639 µM. For the same molecule, the TGI (SK-MEL-28 melanoma) was 2.41 µM and 2.15 µM, the TGI (UO-31 renal) was 1.75 µM and the GI50 (NCI-H460 lung) was 0.00355 µM. For the same molecule, the TGI (NCI-H460 lung) was 1.58 µM and 1.89 µM, the TGI (HOP-62 NSCLC) was 1.91 µM and the GI50 (786-0 renal) was less than 0.001 µM. The TGI (786-0 renal) was 1.46 µM and 1.77 µM, the GI50 (CCRF-CEM leukemia) was less than 0.001 µM and the GI50 (SNB-19 CNS) was 0.274 µM. The TGI (SNB-19 CNS) was 2.27 µM and 2.06 µM, the GI50 (SF-539 CNS) was 0.329 µM and the TGI (SF-539 CNS) was 1.43 µM and 1.63 µM. For the same molecule, the GI50 (MDA-MB-231 breast) was less than 0.001 µM, the TGI (MDA-MB-231 breast) was 1.87 µM and 1.83 µM and the GI50 (ACHN renal) was 0.00216 µM. For the same molecule, the TGI (ACHN renal) was 1.58 µM and 1.47 µM, the GI50 (T-47D breast) was less than 0.001 µM and the TGI (M14 melanoma) was 1.47 µM and 0.26 µM. The GI50 (NCI/ADR-RES ovarian) was less than 0.001 µM, the TGI (NCI/ADR-RES ovarian) was 1.28 µM and 2.54 µM and the TGI (SN12C renal) was 1.91 µM. The GI50 (HT29 colon) was 0.00724 µM, the TGI (HT29 colon) was 3.41 µM and 1.8 µM and the GI50 (PC-3 prostate) was less than 0.001 µM. The TGI (PC-3 prostate) was 1.37 µM and 1.52 µM, the GI50 (SNB-75 CNS) was 0.66 µM and the TGI (SNB-75 CNS) was 2.04 µM and 1.95 µM.
For `CC(=O)C1(N=Nc2ccc(S(N)(=O)=O)cc2)CCOC1=O` (stereo not drawn), the TGI (KM12 colon) was greater than 100 µM, the TGI (NCI-H23 lung) was greater than 100 µM and the TGI (A549 NSCLC) was greater than 100 µM. For the same molecule, the TGI (LOX IMVI melanoma) was greater than 100 µM, the TGI (UACC-257 melanoma) was greater than 100 µM and the TGI (IGROV1 ovarian) was greater than 100 µM. For the same molecule, the TGI (SK-MEL-5 melanoma) was greater than 100 µM, the TGI (CAKI-1 renal) was greater than 100 µM and the TGI (OVCAR-8 ovarian) was greater than 100 µM. The TGI (U251 CNS) was greater than 100 µM, the TGI (SW-620 colon) was greater than 100 µM and the TGI (SK-OV-3 ovarian) was greater than 100 µM. The TGI (NCI-H226 lung) was greater than 100 µM, the TGI (HCT-15 colon) was greater than 100 µM and the TGI (HOP-92 NSCLC) was greater than 100 µM. The TGI (MDA-N) was greater than 100 µM, the TGI (SK-MEL-2 melanoma) was greater than 100 µM and the TGI (A498 renal) was greater than 100 µM. The TGI (HS 578T breast) was greater than 100 µM, the TGI (SF-268 CNS) was greater than 100 µM and the TGI (EKVX NSCLC) was greater than 100 µM. The TGI (NCI-H522 lung) was greater than 100 µM, the TGI (RXF 393 renal) was greater than 100 µM and the TGI (MALME-3M melanoma) was greater than 100 µM. The TGI (OVCAR-5 ovarian) was greater than 100 µM, the TGI (HCT-116 colon) was greater than 100 µM and the TGI (MCF7 breast) was greater than 100 µM. For the same molecule, the TGI (UACC-62 melanoma) was greater than 100 µM, the TGI (DU-145 prostate) was greater than 100 µM and the TGI (MDA-MB-435) was greater than 100 µM. For the same molecule, the TGI (TK-10 renal) was greater than 100 µM, the TGI (HL-60(TB) leukemia) was greater than 100 µM and the TGI (OVCAR-3 ovarian) was greater than 100 µM. The TGI (BT-549 breast) was greater than 100 µM, the TGI (OVCAR-4 ovarian) was greater than 100 µM and the TGI (SF-295 CNS) was greater than 100 µM. It also gave a TGI (COLO 205 colon) greater than 100 µM, a TGI (SK-MEL-28 melanoma) greater than 100 µM and a TGI (UO-31 renal) greater than 100 µM. For the same molecule, the TGI (NCI-H460 lung) was greater than 100 µM, the TGI (HOP-62 NSCLC) was greater than 100 µM and the TGI (786-0 renal) was greater than 100 µM. For the same molecule, the TGI (CCRF-CEM leukemia) was greater than 100 µM, the TGI (SNB-19 CNS) was greater than 100 µM and the TGI (SF-539 CNS) was greater than 100 µM. For the same molecule, the TGI (MDA-MB-231 breast) was greater than 100 µM, the TGI (ACHN renal) was greater than 100 µM and the TGI (T-47D breast) was greater than 100 µM. For the same molecule, the TGI (M14 melanoma) was greater than 100 µM, the TGI (NCI/ADR-RES ovarian) was greater than 100 µM and the TGI (SN12C renal) was greater than 100 µM. It also gave a TGI (HT29 colon) greater than 100 µM, a TGI (PC-3 prostate) greater than 100 µM and a TGI (SNB-75 CNS) greater than 100 µM.

— PubChem BioAssay (NCI)
